From patent US8802597B2, “Herbicidal pyrimidines” (E I du Pont de Nemours and Company, priority 2003, dated 2014)
Like-named read-outs stand apart in the source and are kept apart here.

Tests used:
Experiment in all cases: Test C pre/postemergence
Format in all cases: in vivo
[1] = system: cocklebur (Xanthium strumarium); settings: Xanthium strumarium; for pest or weed control at 31 g/ha: 31 g ai/ha; for pest or weed control at 62 g/ha: 62 g ai/ha; for pest or weed control at 125 g/ha: 125 g ai/ha; for pest or weed control at 250 g/ha: 250 g ai/ha
Summary of the method: (§1)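 Test compounds, formulated in a non-phytotoxic solvent mix with surfactant, were applied to freshly planted seeds and, at the same time, to emerged plants at 1- to 4-leaf stage (2 to 18 cm). After 12 to 14 days in the greenhouse, response was scored visually versus controls, 0 = no effect, 100 = complete control.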

[2] = system: pigweed (Amaranthus retroflexus); settings: Amaranthus retroflexus; for pest or weed control at 31 g/ha: 31 g ai/ha; for pest or weed control at 62 g/ha: 62 g ai/ha; for pest or weed control at 125 g/ha: 125 g ai/ha; for pest or weed control at 250 g/ha: 250 g ai/ha
Summary of the method: as §1

[3] = system: common (oilseed) sunflower (Helianthus annuus); settings: Helianthus annuus, pre-emergence, Preemergence, read-out: Plant response rating, Sunflower
Summary of the method: as §1

kochia (Kochia scoparia) = settings: Bassia scoparia; for pest or weed control at 31 g/ha: 31 g ai/ha; for pest or weed control at 62 g/ha: 62 g ai/ha; for pest or weed control at 125 g/ha: 125 g ai/ha; for pest or weed control at 250 g/ha: 250 g ai/ha
Summary of the method: as §1

[4] = system: giant foxtail (Setaria faberii); settings: Setaria faberi; for pest or weed control at 125 g/ha: 125 g ai/ha; for pest or weed control at 31 g/ha: 31 g ai/ha; for pest or weed control at 62 g/ha: 62 g ai/ha; for pest or weed control at 250 g/ha: 250 g ai/ha
Summary of the method: as §1

[5] = system: crabgrass (Digitaria sanguinalis); settings: Digitaria sanguinalis; for pest or weed control at 31 g/ha: 31 g ai/ha; for pest or weed control at 62 g/ha: 62 g ai/ha
Summary of the method: as §1

[6] = post-emergence, Postemergence, scale 0 to 100 (0 no effect, 100 complete control), read-out: Cocklebur plant response rating
[7] = pre-emergence, Preemergence, scale 0 to 100, 0 no effect, 100 complete control, read-out: Plant response rating, Cocklebur
[8] = pre-emergence, Preemergence, scale 0 to 100, read-out: Plant response rating, Cocklebur
[9] = post-emergence, Postemergence, scale 0 to 100 (0 no effect, 100 complete control), read-out: Pigweed plant response rating
[10] = pre-emergence, Preemergence, scale 0 to 100, 0 no effect, 100 complete control, read-out: Plant response rating, Pigweed
[11] = pre-emergence, Preemergence, scale 0 to 100, read-out: Plant response rating, Pigweed
[12] = post-emergence, Postemergence, scale 0 to 100 (0 no effect, 100 complete control), read-out: Kochia plant response rating
[13] = pre-emergence, Preemergence, scale 0 to 100, 0 no effect, 100 complete control, read-out: Plant response rating, Kochia
[14] = pre-emergence, Preemergence, scale 0 to 100, read-out: Plant response rating, Kochia
[15] = post-emergence, Postemergence, scale 0 to 100 (0 no effect, 100 complete control), read-out: Foxtail, Giant plant response rating
[16] = pre-emergence, Preemergence, scale 0 to 100, 0 no effect, 100 complete control, read-out: Plant response rating, Foxtail, Giant
[17] = pre-emergence, Preemergence, scale 0 to 100, read-out: Plant response rating, Foxtail, Giant
[18] = pre-emergence, Preemergence, scale 0 to 100, 0 no effect, 100 complete control, read-out: Plant response rating, Crabgrass

## COC(=O)c1nc(C2CC2)nc(N)c1Cl [Compound 9, methyl 6-amino-5-chloro-2-cyclopropyl-4-pyrimidinecarboxylate]
[1]; post-emergence, Postemergence, read-out: Plant response rating (scale of 0 to 100), Cocklebur
  pest or weed control at 31 g/ha: 40%
[1]; [6]
  pest or weed control at 62 g/ha: 85%
  pest or weed control at 125 g/ha: 100%
[1]; post-emergence, Postemergence, scale 0 to 100, read-out: Plant response rating, Cocklebur
  pest or weed control at 250 g/ha: 100%
[1]; [7]
  pest or weed control at 31 g/ha: 75%
  pest or weed control at 62 g/ha: 80%
[1]; [8]
  pest or weed control at 125 g/ha: 100%
  pest or weed control at 250 g/ha: 100%
[2]; post-emergence, Postemergence, read-out: Plant response rating (scale of 0 to 100), Pigweed
  pest or weed control at 31 g/ha: 55%
[2]; [9]
  pest or weed control at 62 g/ha: 70%
  pest or weed control at 125 g/ha: 100%
[2]; post-emergence, Postemergence, scale 0 to 100, read-out: Plant response rating, Pigweed
  pest or weed control at 250 g/ha: 100%
[2]; [10]
  pest or weed control at 31 g/ha: 95%
  pest or weed control at 62 g/ha: 95%
[2]; [11]
  pest or weed control at 125 g/ha: 100%
  pest or weed control at 250 g/ha: 100%
[3]; 31 g ai/ha, scale 0 to 100, 0 no effect, 100 complete control
  pest or weed control at 31 g/ha: 100%
[3]; 62 g ai/ha, scale 0 to 100, 0 no effect, 100 complete control
  pest or weed control at 62 g/ha: 100%
[3]; 125 g ai/ha, scale 0 to 100
  pest or weed control at 125 g/ha: 100%
[3]; 250 g ai/ha, scale 0 to 100
  pest or weed control at 250 g/ha: 100%
Kochia (Kochia scoparia); post-emergence, Postemergence, read-out: Plant response rating (scale of 0 to 100), Kochia
  pest or weed control at 31 g/ha: 95%
Kochia (Kochia scoparia); [12]
  pest or weed control at 62 g/ha: 100%
  pest or weed control at 125 g/ha: 100%
Kochia (Kochia scoparia); post-emergence, Postemergence, scale 0 to 100, read-out: Plant response rating, Kochia
  pest or weed control at 250 g/ha: 100%
Kochia (Kochia scoparia); [13]
  pest or weed control at 31 g/ha: 95%
  pest or weed control at 62 g/ha: 95%
Kochia (Kochia scoparia); [14]
  pest or weed control at 125 g/ha: 100%
  pest or weed control at 250 g/ha: 100%
[4]; [15]
  pest or weed control at 125 g/ha: 75%
  pest or weed control at 62 g/ha: 65%
[4]; post-emergence, Postemergence, read-out: Plant response rating (scale of 0 to 100), Foxtail, Giant
  pest or weed control at 31 g/ha: 60%
[4]; post-emergence, Postemergence, scale 0 to 100, read-out: Plant response rating, Foxtail, Giant
  pest or weed control at 250 g/ha: 80%
[4]; [16]
  pest or weed control at 31 g/ha: 0%
  pest or weed control at 62 g/ha: 0%
[4]; [17]
  pest or weed control at 125 g/ha: 75%
  pest or weed control at 250 g/ha: 80%
[5]; post-emergence, Postemergence, read-out: Plant response rating (scale of 0 to 100), Crabgrass
  pest or weed control at 31 g/ha: 60%
[5]; post-emergence, Postemergence, scale 0 to 100 (0 no effect, 100 complete control), read-out: Crabgrass plant response rating
  pest or weed control at 62 g/ha: 70%
[5]; post-emergence, Postemergence, 125 g ai/ha, scale 0 to 100 (0 no effect, 100 complete control), read-out: Crabgrass plant response rating
  pest or weed control at 125 g/ha: 75%
[5]; post-emergence, Postemergence, 250 g ai/ha, scale 0 to 100, read-out: Plant response rating, Crabgrass
  pest or weed control at 250 g/ha: 80%
[5]; [18]
  pest or weed control at 31 g/ha: 20%
  pest or weed control at 62 g/ha: 95%
